Test results published in US11452291B2, “Induction of a physiological dispersion response in bacterial cells in a biofilm” (The Research Foundation for The State University of New York, priority 2007, dated 2022).

Columns and labels:
[1] = system: P. aeruginosa biofilms; assay: Microtiter plate dispersion bioassay; type: cell-based, Pseudomonas aeruginosa PAO1
Experimental: Microtiter plate dispersion bioassays were used to test various preparations for their ability to exogenously induce biofilm dispersion. Biofilms were grown on the inside surface of microtiter plate wells using a semi-batch culture method in which the medium within each well was replaced periodically to reduce the accumulation of native dispersion inducing factors. Biofilms grown in this manner were treated with dispersion inducer or sterile medium to release cells into the bulk liquid and evaluate dispersed cell number by measuring optical density. Briefly, sterile polystyrene 96 well plates were etched with acetone for 10 seconds to create a rough surface for the attachment of microbial cells. After drying for 24 hours, plates were inoculated with 150 μL/well of overnight culture containing the test organism, previously diluted 1:20 in growth medium and incubated at 30° C. with shaking at 200 rpm. Medium in the wells was replaced every 24 hours for 5 days and every 12 hours on day 6 and day 7. Medium was then replaced after 7 hours. Dispersion induction was tested by adding 150 μL growth medium containing dispersion inducer for 1 hr at 30° C. or sterile medium as a control. Medium containing dispersed cells was then transferred by pipet to a non-etched microtiter plate and the optical density (OD570) was determined (ELx808 Absorbance Microplate Reader; BioTek Instruments, Inc., Winooski, Vt.). […] Note: Microtiter plate dispersion bioassays were not suitable for determining absolute magnitude of an induced dispersion response because in a semi-batch system, control and test samples are susceptible to natural dispersion against which the activity of exogenous induction is measured. All efficiency studies were performed using biofilm tube reactor or flow-cell continuous culture systems and were based on both total cell counts and viable cell counts.

[2] = system: biofilm cells of Staphylococcus aureus; conditions: cited from earlier work
[3] = system: P. aeruginosa biofilm microcolonies; assay: Microscopic analysis of mature biofilm in flow cell; type: cell-based, Pseudomonas aeruginosa
Experimental: A continuous-culture once-through flow cell was configured to observe the growth and development of biofilms attached to a glass substratum. The flow cell was constructed of aluminum containing a chamber 1.0 mm by 1.4 cm by 4.0 cm capped with a glass cover slip. Sterile modified EPRI medium was pumped from a 10-liter vessel through silicone tubing to the flow cell using a Masterflex 8-roller-head peristaltic pump at a flow rate of 0.13 mL/min. Flow through the chamber was laminar, with a Reynolds number of 0.17, having a fluid residence time of 4.3 min. Medium leaving the flow cell was discharged to an effluent reservoir via silicone tubing. The entire system was closed to the outside environment but maintained in equilibrium with atmospheric pressure by a 0.2-μm-pore-size gas-permeable filter fitted to each vessel. […] Each cell cluster was measured to determine its height by focusing from the substratum through to the apex of the cluster, and its width by measurement at the base of the cell cluster using a stage micrometer. Cell clusters were defined as cells embedded within an exopolysaccharide matrix attached to the substratum and lacking motility; void areas within cell clusters were determined by the observation of free-swimming bacteria within a space inside a cell cluster. […]

CC(C)CCCCCCC/C=C\C(=O)O [DSF, reference compound]
promotion of dispersion of P. aeruginosa [1]: shown not to promote dispersion

OCl [chlorine, sodium hypochlorite]
increase in concentration required to kill biofilm cells compared to planktonic cells [2]: 600 fold

CCCCCCC/C=C\C(=O)O [cis-2-decenoic acid]
time at which microcolony disaggregation begins ([3]; 10 μM added to mature biofilm in flow cell): 11 min
effect on biofilm microcolony by microscopy ([3]; FIG. 13): completely disrupting a biofilm microcolony
dispersion activity compared to un-concentrated spent culture medium ([1]; 1.0 nanomolar): greater dispersion activity at 1.0 nanomolar than un-concentrated spent culture medium

CCCCCCC/C=C/C(=O)O [trans-2-decenoic acid]
concentration range with dispersion activity ([1]; biofilm cultures grown in microtiter plates): activity only at millimolar concentrations
